Test results as given in patent US7419980B2, “Fused-aryl and heteroaryl derivatives and methods of their use” (Wyeth, priority 2003, dated 2008).
Structures can show the parent of a compound that is named as a salt.

These compounds were tested against T1, human hNET (Homo sapiens, UniProt P23975) (assay: Norepinephrine (NE) uptake assay in MDCK-Net6 cells). Settings: 1 μM test compound; [3H]NE uptake, MDCK-Net6 cells; read-out: % Inhibition @ 1 μM (hNET).
T1 construct: expressed in transfected cells; host or cells: MDCK-Net6 (MDCK cells stably transfected with hNET)
T1 sequence (P23975 whole entry): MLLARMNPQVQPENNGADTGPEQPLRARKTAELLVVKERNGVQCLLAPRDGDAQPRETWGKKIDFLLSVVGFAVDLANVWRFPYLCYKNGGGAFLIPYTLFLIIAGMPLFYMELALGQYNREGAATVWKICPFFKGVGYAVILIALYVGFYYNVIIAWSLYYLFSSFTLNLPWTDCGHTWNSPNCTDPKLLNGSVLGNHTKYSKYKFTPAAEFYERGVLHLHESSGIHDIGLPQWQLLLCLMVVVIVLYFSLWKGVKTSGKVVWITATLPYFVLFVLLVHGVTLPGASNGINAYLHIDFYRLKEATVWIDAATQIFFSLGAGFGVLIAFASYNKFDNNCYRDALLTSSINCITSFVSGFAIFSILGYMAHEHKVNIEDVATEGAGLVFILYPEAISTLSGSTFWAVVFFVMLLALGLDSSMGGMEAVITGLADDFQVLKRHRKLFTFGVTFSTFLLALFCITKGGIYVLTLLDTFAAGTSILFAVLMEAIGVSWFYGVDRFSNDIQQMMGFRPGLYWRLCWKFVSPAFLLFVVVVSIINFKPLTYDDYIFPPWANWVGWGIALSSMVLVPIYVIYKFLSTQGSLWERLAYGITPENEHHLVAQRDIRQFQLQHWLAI
Format: cell-based
Method: MDCK-Net6 cells, stably transfected with human hNET (Pacholczyk, T., R. D. Blakely, and S. G. Amara, Nature, 1991, 350(6316): p. 350-4) were cultured in growth medium containing high glucose DMEM (Gibco, Cat. No. 11995), 10% FBS (dialyzed, heat-inactivated, US Bio-Technologies, Lot FBD1129HI) and 500 μg/ml G418 (Gibco, Cat. No. 10131). Cells were plated at 300,000/T75 flask and cells were split twice weekly. The JAR cell line (human placental choriocarcinoma) was purchased from ATCC (Cat. No. HTB-144). The cells were cultured in growth medium containing RPMI 1640 (Gibco, Cat. No. 72400), 10% FBS (Irvine, Cat. No. 3000), 1% sodium pyruvate (Gibco, Cat. No. 1136) and 0.25% glucose. Cells were plated at 250,000 cells/T75 flask and split twice weekly. For all assays, cells were plated in Wallac 96-well sterile plates (PerkinElmer, Cat. No. 3983498).
On day 1, cells were plated at 3,000 cells/well in growth medium and maintained in a cell incubator (37° C., 5% CO2). On day 2, growth medium was replaced with 200 μl of assay buffer (25 mM HEPES; 120 mM NaCl; 5 mM KCl; 2.5 mM CaCl2; 1.2 mM MgSO4; 2 mg/ml glucose (pH 7.4, 37° C.)) containing 0.2 mg/ml ascorbic acid and 10 μM pargyline. Plates containing cells with 200 μl of assay buffer were equilibrated for 10 minutes at 37° C. prior to addition of compounds. A stock solution of desipramine was prepared in DMSO (10 mM) and delivered to triplicate wells containing cells for a final tert concentration of 1 μM. Data from these wells were used to define non-specific NE uptake (minimum NE uptake). Test compounds were prepared in DMSO (10 mM) and diluted in assay buffer according to tert range (1 to 10,000 nM). Twenty-five microliters of assay buffer (maximum NE uptake) or tert compound were added directly to triplicate wells containing cells in 200 μl of assay buffer. The cells in assay buffer with tert compounds were incubated for 20 minutes at 37° C. To initiate the NE uptake, [^3H]NE diluted in assay buffer (120 nM final assay concentration) was delivered in 25 μl aliquots to each well and the plates were incubated for 5 minutes (37° C.). The reaction was terminated by decanting the supernatant from the plate. The plates containing cells were washed twice with 200 μl assay buffer (37° C.) to remove free radioligand. The plates were then inverted, left to dry for 2 minutes, then reinverted and air-dried for an additional 10 minutes. The cells were lysed in 25 μl of 0.25 N NaOH solution (4° C.), placed on a shake table and vigorously shaken for 5 minutes. After cell lysis, 75 μl of scintillation cocktail was added to each well and the plates were sealed with film tape. The plates were returned to the shake table and vigorously shaken for a minimum of 10 minutes to ensure adequate partitioning of organic and aqueous solutions. The plates were counted in a Wallac Microbeta counter (PerkinElmer) to collect the raw cpm data.
For each experiment, a data stream of cpm values collected from the Wallac Microbeta counter was downloaded to a Microsoft Excel statistical application program. Calculations of EC50 values were made using the transformed-both-sides logistic dose response program written by Wyeth Biometrics Department. The statistical program uses mean cpm values from wells representing maximum binding or uptake (assay buffer) and mean cpm values from wells representing minimum binding or uptake ((1 μM desipramine (hNET) or 1 μM paroxetine (hSERT)). Estimation of the EC50 value was completed on a log scale and the line was fit between the maximum and minimum binding or uptake values. All graphic data representation was generated by normalizing each data point to a mean percent based on the maximum and minimum binding or uptake values. The EC50 values reported from multiple experiments were calculated by pooling the raw data from each experiment and analyzing the pooled data as one experiment.

First: OC1(C(CN2CCNCC2)c2cc3ccccc3s2)CCCCC1 (centres unmarked) [Example 261, 1-[1-(1-benzothien-2-yl)-2-piperazin-1-ylethyl]cyclohexanoldihydrochloride]
Second: OC1(C(CN2CCNCC2)c2cnc3ccccc3c2)CCCCC1 (centres unmarked) [Example 262, 1-(2-piperazin-1-yl-1-quinolin-3-ylethyl)cyclohexanol Dihydrochloride]
The inhibition at 1 µM of the first is higher: 60% for the first, 19% for the second.

Compared with OC1(C(CN2CCNCC2)c2cccc3ccccc23)CCCCCCC1 (centres unmarked) [Example 269, 1-[1-(1-naphthyl)-2-piperazin-1-ylethyl]cyclooctanol Dihydrochloride], OC1(C(CN2CCNCC2)c2cccc3ccccc23)CCCCCC1 (centres unmarked) [Example 271, 1-[1-(1-naphthyl)-2-piperazin-1-ylethyl]cycloheptanol Dihydrochloride] is lower in inhibition at 1 µM: 41% for the first, 27% for the second.

Compared with CN1CCN(CC(c2cccc3ccccc23)C2(O)CCCCCCC2)CC1 (centres unmarked) [Example 270, 1-[2-(4-methylpiperazin-1-yl-1-(1-naphthyl)ethyl]cyclooctanol Dihydrochloride], CN1CCN(CC(c2cccc3ccccc23)C2(O)CCCCCC2)CC1 (centres unmarked) [Example 272, 1-[2-(4-methylpiperazin-1-yl)-1-(1-naphthyl)ethyl]cycloheptanol Dihydrochloride] is higher in inhibition at 1 µM: 13% for the first, 44% for the second.

First: COc1ccc2scc(C(CN3CCNCC3)C3(O)CCCCC3)c2c1 (centres unmarked) [Example 279, 1-[1-(5-methoxy-1-benzothien-3-yl)-2-piperazin-1-ylethyl]cyclohexanol Dihydrochloride]
Second: OC1(C(CN2CCNCC2)c2cc(Br)cs2)CCCCC1 (centres unmarked) [Example 281, 1-[1-(4-bromothien-2-yl)-2-piperazin-1-ylethyl]cyclohexanol Dihydrochloride]
The inhibition at 1 µM of the first is lower: 16% for the first, 91% for the second.

Going from CCC1CCC(O)(C(CN2CCN(C)CC2)c2cccc3ccccc23)CC1 (centres unmarked) [Example 328, 4-ethyl-1-[2-(4-methylpiperazin-1-yl)-1-(1-naphthyl)ethyl]cyclohexanol Dihydrochloride] to CC1CCC(O)(C(CN2CCN(C)CC2)c2cccc3ccccc23)CC1 (centres unmarked) [Example 333, 4-methyl-1-[2-(4-methylpiperazin-1-yl)-1-(1-naphthyl)ethyl]cyclohexanol Dihydrochloride], the inhibition at 1 µM rises from 5.1% to 16%.

OC1(C(CN2CCNCC2)c2cccnc2)CCCCC1 (centres unmarked) [Example 337, 1-(2-piperazin-1-yl-1-pyridin-3-ylethyl)cyclohexanol Trihydrochloride] was tested, and the inhibition at 1 µM was 4.8%.
